{"source": "paper PMC10831071", "about": "“Reaction hijacking inhibition of Plasmodium falciparum asparagine tRNA synthetase” (Nature Communications, 2024)", "test_in_all_cases": "microbe, parasite or virus in culture", "assay_type_in_all_cases": "cell-based, Plasmodium falciparum", "key": {"[1]": {"system": "PfAsnRS cKD P. falciparum line", "conditions": "for growth after 72 h exposure, normalised to no drug: PfAsnRS K/D, replicates", "from_the_text": "(§1) Conditional knockdown (cKD) P. falciparum lines were generated for the cytosolic AsnRS (PF3D7_0211800), cytosolic AlaRS (PF3D7_1367700), cytosolic GlyRS (GlyRS; PF3D7_1420400), PfNT4 (PF3D7_0103200), P. falciparum glutamate dehydrogenase 3 (GDH3; PF3D7_0802000), and P. falciparum carbonic anhydrase (CA, PF3D7_1140000) by fusing the coding sequences and non-coding RNA aptamer sequences in the 3’-UTR, permitting translation regulation using the TetR-DOZI system[59],[60]. Gene editing was achieved by CRISPR/SpCas9 using the linear pSN054 vector that contains cloning sites for the left homology region (LHR) and the right homology region (RHR) as well a target-specific guide RNA under control of the T7 promoter. Cloning into the pSN054 donor vector was carried out following described procedures[59],[60]. The vector includes V5-2xHA epitope tags, a 10x tandem array of TetR aptamers upstream of an Hsp86 3’UTR, and a multicistronic cassette for expression of TetR-DOZI (translation regulation), blasticidin S-deaminase (selection marker) and a Renilla luciferase (RLuc) reporter. All primer and synthetic fragment sequences that were generated using the BioXP™ system and IDT gBlocks™ are included in Supplementary Table 9. The final constructs were sequence-verified and further confirmed by restriction digests.\n(§2) Transfection into Cas9- and T7 RNA polymerase-expressing NF54 parasites was carried out by pre-loading red blood cells (RBCs) with the donor vector[61]. […] Cultures were monitored by Giemsa smears and RLuc measurements.\n(§3) DMSO- and dihydroartemisinin-treatment (0.5 µM) served as reference controls."}, "[2]": {"system": "PfAlaRS cKD P. falciparum line", "conditions": "for Growth: PfAlaRS K/D; for IC50: PfAlaRS line, individual repeats", "from_the_text": "as §1, §2, §3"}, "[3]": {"system": "PfCA cKD P. falciparum line", "conditions": "for Growth: PfCA K/D", "from_the_text": "as §1, §2, §3"}}, "note": "Values joined by “and” are separate entries in the source; they are usually repeats but may differ in a detail not shown here. Equal values may be shown once. Read-outs that look alike come from different tables or passages of the source."}
{"smiles": "Nc1ncnc2cc(-c3cccc(S(N)(=O)=O)c3)sc12", "note": "[OSM-S-106]", "values": [{"measurement": "growth after 72 h exposure, normalised to no drug", "setting": "[1]; 1 nM aTc, 100 nM", "result": "12.9721 and 14.646 and 33.4758"}, {"measurement": "growth after 72 h exposure, normalised to no drug", "setting": "[1]; 1 nM aTc, 200 nM", "result": "2.187 and 4.184 and 3.619"}, {"measurement": "growth after 72 h exposure, normalised to no drug", "setting": "[1]; 1 nM aTc, 400 nM", "result": "0.0118 and 0.3256 and 1.407"}, {"measurement": "growth after 72 h exposure, normalised to no drug", "setting": "[1]; 1 nM aTc, 800 nM", "result": "0 (2×) and 0.3116"}, {"measurement": "growth after 72 h exposure, normalised to no drug", "setting": "[1]; 1 nM aTc, […]", "result": 95.5045}, {"measurement": "growth after 72 h exposure, normalised to no drug", "setting": "[1]; 500 nM aTc, 3.125 nM", "result": "100 (2×) and 130.484"}, {"measurement": "growth after 72 h exposure, normalised to no drug", "setting": "[1]; 500 nM aTc, 6.25 nM", "result": "102.095 and 95.7689 and 98.7064"}, {"measurement": "growth after 72 h exposure, normalised to no drug", "setting": "[1]; 500 nM aTc, 12.5 nM", "result": "106.159 and 101.462 and 104.967"}, {"measurement": "growth after 72 h exposure, normalised to no drug", "setting": "[1]; 500 nM aTc, 25 nM", "result": "108.223 and 97.6665 and 110.496"}, {"measurement": "growth after 72 h exposure, normalised to no drug", "setting": "[1]; 500 nM aTc, 50 nM", "result": "109.874 and 96.9998 and 112.12"}, {"measurement": "growth after 72 h exposure, normalised to no drug", "setting": "[1]; 500 nM aTc, 100 nM", "result": "74.5373 and 61.9971 and 57.4067"}, {"measurement": "growth after 72 h exposure, normalised to no drug", "setting": "[1]; 500 nM aTc, 200 nM", "result": "13.0647 and 13.1882 and 56.7167"}, {"measurement": "growth after 72 h exposure, normalised to no drug", "setting": "[1]; 500 nM aTc, 400 nM", "result": "1.083 and 1.38 and 11.7035"}, {"measurement": "growth after 72 h exposure, normalised to no drug", "setting": "[1]; 500 nM aTc, 800 nM", "result": "0 (2×) and 1.573"}, {"measurement": "growth after 72 h exposure, normalised to no drug", "setting": "[1]; 500 nM aTc, […]", "result": 123.179}, {"measurement": "IC50", "setting": "[1]; PfAsnRS line, 500 nM aTc, individual repeats", "result": "0.116 µM and 0.175 µM"}, {"measurement": "IC50", "setting": "[1]; Plasmodium falciparum, PfAsnRS line, 500 nM aTc, individual repeats", "result": 0.123, "unit": "µM"}, {"measurement": "IC50", "setting": "[1]; Plasmodium falciparum, read-out: Mean IC50 with 500 nM aTc, PfAsnRS line, 500 nM aTc", "result": 0.14, "unit": "µM"}, {"measurement": "IC50", "setting": "[1]; Plasmodium falciparum, read-out: Mean IC50 with low (1 or […])/ no aTc, PfAsnRS knockdown, low aTc", "result": 0.026, "unit": "µM"}, {"measurement": "Growth", "setting": "[2]; 3.125 nM OSM-S-106, 500 nM aTc", "result": "106.745 and 98.2451 and 120.926"}, {"measurement": "Growth", "setting": "[2]; 6.25 nM OSM-S-106, 500 nM aTc", "result": "90.3733 and 84.6837 and 109.578"}, {"measurement": "Growth", "setting": "[2]; 12.5 nM OSM-S-106, 500 nM aTc", "result": "88.5694 and 88.7266 and 97.0041"}, {"measurement": "Growth", "setting": "[2]; 25 nM OSM-S-106, 500 nM aTc", "result": "83.1875 and 95.5017 and 98.3659"}, {"measurement": "Growth", "setting": "[2]; 50 nM OSM-S-106, 500 nM aTc", "result": "55.6885 and 91.3478 and 80.2088"}, {"measurement": "Growth", "setting": "[2]; 200 nM OSM-S-106, 500 nM aTc", "result": 76.3648}, {"measurement": "Growth", "setting": "[2]; 200 nM OSM-S-106, […] aTc", "result": 67.5946}, {"measurement": "IC50", "setting": "[2]; 1 nM, […] aTc or no aTc", "result": 0.0462, "unit": "µM"}, {"measurement": "IC50", "setting": "[2]; 500 nM aTc", "result": 0.0997, "unit": "µM"}, {"measurement": "IC50", "setting": "[2]; Plasmodium falciparum, 1 nM, […] aTc or no aTc", "result": 0.0568, "unit": "µM"}, {"measurement": "IC50", "setting": "[2]; Plasmodium falciparum, 500 nM aTc", "result": 0.0784, "unit": "µM"}, {"measurement": "Growth", "setting": "[3]; 3.125 nM OSM-S-106, 500 nM aTc", "result": "126.787 and 158.672 and 147.974"}, {"measurement": "Growth", "setting": "[3]; 3.125 nM OSM-S-106, no aTc", "result": "126.423 and 113.544 and 101.394"}, {"measurement": "Growth", "setting": "[3]; 6.25 nM OSM-S-106, 500 nM aTc", "result": "92.3654 and 131.4 and 126.99"}, {"measurement": "Growth", "setting": "[3]; 6.25 nM OSM-S-106, no aTc", "result": "110.949 and 103.392 and 134.667"}, {"measurement": "Growth", "setting": "[3]; 12.5 nM OSM-S-106, 500 nM aTc", "result": "103.771 and 150.344 and 136.72"}, {"measurement": "Growth", "setting": "[3]; 12.5 nM OSM-S-106, no aTc", "result": "107.898 and 113.66 and 101.587"}, {"measurement": "Growth", "setting": "[3]; 25 nM OSM-S-106, 500 nM aTc", "result": "66.7109 and 104.005 and 106.363"}, {"measurement": "Growth", "setting": "[3]; 25 nM OSM-S-106, no aTc", "result": "55.2693 and 67.1039 and 67.9395"}, {"measurement": "Growth", "setting": "[3]; 50 nM OSM-S-106, 500 nM aTc", "result": "39.8979 and 23.9771 and 45.5735"}, {"measurement": "Growth", "setting": "[3]; 50 nM OSM-S-106, no aTc", "result": "31.2463 and 15.9234 and 30.4793"}, {"measurement": "Growth", "setting": "[3]; 100 nM OSM-S-106, 500 nM aTc", "result": 11.4398}, {"measurement": "Growth", "setting": "[3]; 100 nM OSM-S-106, no aTc", "result": "10.8379 and 9.475 and 12.418"}, {"measurement": "Growth", "setting": "[3]; 200 nM OSM-S-106, 500 nM aTc", "result": "5.818 and 8.3279 and 9.44"}, {"measurement": "Growth", "setting": "[3]; 200 nM OSM-S-106, no aTc", "result": "6.983 and 9.353 and 10.7306"}, {"measurement": "Growth", "setting": "[3]; 400 nM OSM-S-106, no aTc", "result": "0.8215 and 0.8297 and 1.231"}, {"measurement": "IC50", "setting": "[3]; PfCA line, 500 nM aTc, individual repeats", "result": "0.0313 µM and 0.0376 µM"}, {"measurement": "IC50", "setting": "[3]; Plasmodium falciparum, PfCA line, 1 nM, […] aTc or no aTc, individual repeats", "result": 0.023, "unit": "µM"}, {"measurement": "IC50", "setting": "[3]; Plasmodium falciparum, PfCA line, 500 nM aTc, individual repeats", "result": 0.0292, "unit": "µM"}, {"measurement": "IC50", "setting": "[3]; Plasmodium falciparum, read-out: Mean IC50 with 500 nM aTc, PfCA line, 500 nM aTc", "result": 0.033, "unit": "µM"}, {"measurement": "IC50", "setting": "[3]; Plasmodium falciparum, read-out: Mean IC50 with low (1 or […])/ no aTc, PfCA knockdown, no aTc", "result": 0.026, "unit": "µM"}]}
